Drawing on the RepoRT retention time repository (doi:10.1016/j.jhazmat.2019.121712), this text covers LC retention time for 101 compounds.

Each structure is given as a SMILES string.

The data set in a line: Thermo Scientific Acclaim RSLC 120 C18, 100 × 2.1 mm, 2.2 µm, 30 °C; A: 90% water + 10% methanol + 0.01% formic acid + 5 mM ammonium formate; B: methanol + 0.01% formic acid + 5 mM ammonium formate; gradient (min/%B) 0.1/1 3/39 14/99.9 16/99.9. The conditions noted are these: stereoisomer not certain.
As to `CSc1ccc2c(c1)N(CCC1CCCCN1C)c1ccccc1S2=O` (stereo unspecified), the LC retention time is 6.64 min. On to `COc1ccc(NS(=O)(=O)c2ccc(N)cc2)nn1`, for which the LC retention time turned out to be 4.38 min. With `CCN(CC)c1nc(C)cc(OP(=S)(OC)OC)n1`, the LC retention time was 11.3 min. `COC(=O)C(C)N(C(=O)c1ccco1)c1c(C)cccc1C` (stereo unspecified): the LC retention time turned out to be 8.99 min. Regarding `Cc1cc(C)nc(NS(=O)(=O)c2ccc(N)cc2)n1`, the LC retention time turned out to be 4.31 min. `CN1C2CCC1CC(OC(=O)c1c[nH]c3ccccc13)C2` (stereo unspecified): the LC retention time worked out at 5.09 min. `CCN(CC)CCNC(=O)COc1ccc(OC)cc1`: the LC retention time was 4.31 min. With `Cc1cc(C)n(-c2nc3ccccc3[nH]2)n1` the figure was 8.27 min; with `CC12CCC3c4ccc(O)cc4CCC3C1CC(O)C2O` (stereo unspecified), 6.83 min. With `CC(Cc1ccccc1)NCCn1cnc2c1c(=O)n(C)c(=O)n2C` (stereo unspecified) the figure was 5.06 min; with `COC12CCC3(CC1C(C)(O)C(C)(C)C)C1Cc4ccc(O)c5c4C3(CCN1CC1CC1)C2O5` (stereo unspecified), 7.96 min; with `COC(=O)c1ccccc1S(=O)(=O)NC(=O)N(C)c1nc(C)nc(OC)n1`, 7.94 min. `CCC(C(N)=O)N1CCCC1=O` (stereo unspecified): the LC retention time worked out at 3.74 min. On to `Cc1nnc2n1-c1ccc([N+](=O)[O-])cc1C(c1ccccc1)=NC2`, for which the LC retention time is 6.91 min. Then `CCNC(C)C(=O)c1ccc(C)cc1` (stereo unspecified), with 4.74 min. Regarding `CC(C(=O)O)c1ccc(CC(C)(C)O)cc1` (stereo unspecified), the LC retention time is 7.08 min. With `CCCCCn1nc(C(=O)NC(C(N)=O)C(C)(C)C)c2ccccc21` (stereo unspecified) the figure was 11.2 min; with `COc1cc(OC)nc(NC(=O)NS(=O)(=O)N(C)S(C)(=O)=O)n1`, 6.77 min; with `CC(=O)Nc1ccc(S(=O)(=O)Nc2nccs2)cc1`, 4.24 min. Take `CC12CC3CC(C)(C1)CC(N)(C3)C2`: the LC retention time stood at 6.91 min. On to `NC(N)=Nc1nc(CSCCC(N)=NS(N)(=O)=O)cs1`, for which the LC retention time was 3.24 min. With `CCN(CC)C(=O)N1CCN(C)CC1` the figure was 3.16 min; with `Cc1cccc(N(C)C(=S)Oc2ccc3ccccc3c2)c1`, 12.2 min; with `CC(C)C1CCC(C(=O)NC(Cc2ccccc2)C(=O)O)CC1` (stereo unspecified), 10.4 min. With `CNC(C)Cc1ccc(O)c(OC)c1` (stereo unspecified), the LC retention time amounted to 3.19 min.

For `CNC(=O)Oc1cccc2ccccc12`, the LC retention time was determined as 7.46 min. Then `CCN(C(C)=O)c1cccc(-c2ccnc3c(C#N)cnn23)c1`, with 6.61 min; and `COc1ccc(Cc2nccc3cc(OC)c(OC)cc23)cc1OC`, with 6.27 min; and `Cc1c(N(C)CS(=O)(=O)O)c(=O)n(-c2ccccc2)n1C`, with 4.49 min. With `CC(C)CC(CN)CC(=O)O` (stereo unspecified) the figure was 3.88 min. With `CC(C)OC(=O)c1cc(C(=O)OC(C)C)cc([N+](=O)[O-])c1` the figure was 12 min; with `CCN1CC(CCN2CCOCC2)C(c2ccccc2)(c2ccccc2)C1=O` (stereo unspecified), 6.23 min. For the compound `CCOC(=O)C(CCc1ccccc1)NC(C)C(=O)N1C(C(=O)O)CC2CCCCC21` (stereo unspecified), the LC retention time came to 9.55 min.

Consider `CNc1nc(NC(C)C)nc(SC)n1`, for which the LC retention time was 8.17 min. Then `CCOC(=O)NC(=S)Nc1ccccc1NC(=S)NC(=O)OCC`, with 8.61 min; and `CCOP(=S)(Oc1ccc([N+](=O)[O-])cc1)c1ccccc1` (stereo unspecified), with 11.7 min; and `C=CCC(C(=O)NC(N)=O)C(C)C` (stereo unspecified), with 6.94 min. Then `CCCC(NC)C(=O)c1ccccc1` (stereo unspecified), with 4.89 min; and `CN(C)CCN(Cc1cccs1)c1ccccc1`, with 6.32 min. Consider `CC[N+]([O-])(CC)CC(=O)Nc1c(C)cccc1C`, for which the LC retention time is 5.34 min. On to `CCC12CCCN3CCc4c(n(c5ccccc45)C(O)(C(=O)OC)C1)C32` (stereo unspecified), for which the LC retention time stood at 5.04 min. With `CCN1CCN(C(=O)NC(C(=O)NC2C(=O)N3C(C(=O)O)=C(CSc4nnnn4C)CSC23)c2ccc(O)cc2)C(=O)C1=O` (stereo unspecified) the figure was 4.36 min. Then `CCN(CC)CC(=O)Nc1c(C)cccc1C`, with 4.54 min; and `CCOP(=S)(NC(C)C)Oc1ccccc1C(=O)OC(C)C` (stereo unspecified), with 11.2 min; and `CC(=O)Oc1ccc2c3c1OC1C(OC(C)=O)C=CC4C(C2)N(C)CCC341` (stereo unspecified), with 4.63 min.

In the case of `COc1cc(NS(=O)(=O)c2ccc(N)cc2)ncn1`, the LC retention time came out at 4.75 min. Then `CN(C)CCc1c[nH]c2cccc(O)c12`, with 3.29 min. With `CN(C)c1ccc(N=Nc2ccccc2)cc1`, the LC retention time was 12.4 min. With `CCSC(=O)N1CCCCCC1` the figure was 9.89 min; with `CCN(CC)CCNC(=O)c1cc(S(C)(=O)=O)ccc1OC`, 3.41 min; with `NCC(O)c1ccccc1` (stereo unspecified), 2.84 min. `COc1ccc(CCNCCCC(C#N)(c2ccc(OC)c(OC)c2)C(C)C)cc1OC` (stereo unspecified): the LC retention time is 6.96 min. Regarding `CC(=O)SC1CC2=CC(=O)CCC2(C)C2CCC3(C)C(CCC34CCC(=O)O4)C12` (stereo unspecified), the LC retention time stood at 9.24 min. With `CC(=O)OCC(=O)C1(O)CCC2C3CCC4=CC(=O)CCC4(C)C3C(O)CC21C` (stereo unspecified) the figure was 8.8 min; with `CNC(=O)N(C)c1nc2ccccc2s1`, 8.26 min. With `CCOS(=O)(=O)O` the figure was 1.58 min. On to `CCOC(=O)c1cn2nc(OP(=S)(OCC)OCC)cc2nc1C`, for which the LC retention time was 11.4 min.

Regarding `NC(=O)C1CCCN1` (stereo unspecified), the LC retention time is 1.31 min. Then `CN(C)CCN1C(=O)c2ccccc2N(C)c2ccccc21`, with 5.49 min; and `CCC(c1cccc(O)c1)C(C)CNC` (stereo unspecified), with 5.14 min. With `CN1C2CC(OC(=O)C(CO)c3ccccc3)CC1C1OC12` (stereo unspecified), the LC retention time is 3.83 min. `CCCN1CCCCC1C(=O)Nc1c(C)cccc1C` (stereo unspecified): the LC retention time is 5.39 min. `NCCCCC(NC(CCc1ccccc1)C(=O)O)C(=O)N1CCCC1C(=O)O` (stereo unspecified): the LC retention time was found to be 3.98 min. In the case of `C=CCC1(C(C)C#CCC)C(=O)NC(=O)N(C)C1=O` (stereo unspecified), the LC retention time was determined as 9.09 min.

Regarding `COP(=S)(OC)Oc1ccc(Sc2ccc(OP(=S)(OC)OC)cc2)cc1`, the LC retention time came to 12.4 min. With `CNCCCC(C#N)(c1ccc(OC)c(OC)c1)C(C)C` (stereo unspecified) the figure was 6.14 min.

Regarding `CCC(C)N(C(=O)SCc1ccccc1)C(C)CC` (stereo unspecified), the LC retention time came to 12.8 min. Consider `CCNC1(c2cccc(OC)c2)CCCCC1=O` (stereo unspecified), for which the LC retention time was determined as 4.93 min. Then `CCc1cccc2c3c([nH]c12)C(CC)(CC(=O)O)OCC3` (stereo unspecified), with 10.6 min. In the case of `CCOC(=O)C1(c2ccccc2)CCN(C)CC1`, the LC retention time was 5.28 min. With `CCCCCC(C)n1c(C)c(C(=O)c2cccc3ccccc23)c2ccccc21` (stereo unspecified) the figure was 13 min; with `C#CCNC(C)Cc1ccccc1` (stereo unspecified), 4.66 min; with `CCCCC1=NC2(CCCC2)C(=O)N1Cc1ccc(-c2ccccc2-c2nn[nH]n2)cc1`, 9.44 min.

Consider `CC(=O)OC1C=CC2C3Cc4ccc(O)c5c4C2(CCN3C)C1O5` (stereo unspecified), for which the LC retention time came to 3.75 min. `CNC(C)Cc1ccccc1` (stereo unspecified): the LC retention time turned out to be 4.21 min. In the case of `Cc1nccn1CC1CCc2c(c3ccccc3n2C)C1=O` (stereo unspecified), the LC retention time turned out to be 4.98 min. With `c1cnc2cc3c(cc2n1)C1CNCC3C1`, the LC retention time was determined as 3.63 min. `CCOP(=O)(OCC)SCSCC`: the LC retention time stood at 8.6 min. Regarding `CCCCC(=O)N(Cc1ccc(-c2ccccc2-c2nn[nH]n2)cc1)C(C(=O)O)C(C)C` (stereo unspecified), the LC retention time was 9.21 min. With `CNC(C)CC1CCCCC1` (stereo unspecified) the figure was 5.74 min; with `CCCCCC(=O)c1ccc(O)cc1O`, 10.4 min; with `CCOc1cc(OP(=S)(OC)OC)nc(CC)n1`, 11 min. Then `CC(=O)Nc1c(C)n(C)n(-c2ccccc2)c1=O`, with 3.94 min; and `CN(C)CCc1ccc(O)cc1`, with 2.28 min; and `CNc1nc(C)c(C)c(OC(=O)N(C)C)n1`, with 5.89 min. With `Cc1ccc(-c2nc3ccc(C)cn3c2CC(=O)N(C)C)cc1` the figure was 5.8 min; with `CC=C1CC(C)C(C)(O)C(=O)OCC2=CC[N+]3([O-])CCC(OC1=O)C23` (stereo unspecified), 5.07 min; with `NCCc1cnc[nH]1`, 1.58 min. As to `CCOC(=O)c1ccccc1C(=O)OCC`, the LC retention time came to 8.5 min. Then `CCOP(=S)(OCC)Oc1cnc2ccccc2n1`, with 10.8 min; and `CCN(CC)CCN1c2ccccc2Sc2ccccc21`, with 7.76 min. With `CC(C)c1cc(Oc2ccccc2)cc(C(C)C)c1NC(=S)NC(C)(C)C` the figure was 12.9 min; with `CCCCNc1ccc(C(=O)OCCN(C)C)cc1`, 6.43 min. Then `CN(C)c1nc(N(C)C)nc(N(C)C)n1`, with 10.1 min; and `CCCCCCOC(=O)NC(=N)c1ccc(NCc2nc3cc(C(=O)N(CCC(=O)OCC)c4ccccn4)ccc3n2C)cc1`, with 9.29 min. As to `CNC(=O)Oc1cc(C)cc(C)c1C`, the LC retention time was found to be 8.4 min. Then `c1cc2c(cc1CN1CCNCC1)OCO2`, with 4.22 min; and `CCOc1cc(CC(=O)NC(CC(C)C)c2ccccc2N2CCCCC2)ccc1C(=O)O` (stereo unspecified), with 11.9 min.

Consider `CC(=O)C1CCC2C3CCC4=CC(=O)CCC4(C)C3CCC12C` (stereo unspecified), for which the LC retention time came to 11.2 min. Then `CCOc1ccc(NC(C)=O)cc1`, with 5.93 min; and `N#CCCCCn1cc(C(=O)c2cccc3ccccc23)c2ccccc21`, with 9.69 min.
